# Test results as given in ChEMBL document CHEMBL1140402, “SAR, species specificity, and cellular activity of cyclopentene dicarboxylic acid amides as DHODH inhibitors” (Bioorg Med Chem Lett, 2005).
# pIC50: −log10 of the molar value.
# Legend:
# [1] = target: Dihydroorotate dehydrogenase (quinone), mitochondrial (Rattus norvegicus, UniProt Q63707); assay: Inhibitory activity against rat dihydroorotate dehydrogenase
# [2] = target: Dihydroorotate dehydrogenase (quinone), mitochondrial (Mus musculus, UniProt O35435); assay: Inhibitory activity against mouse dihydroorotate dehydrogenase
# Chain of Dihydroorotate dehydrogenase (quinone), mitochondrial (Mus musculus, UniProt O35435) (O35435 whole entry): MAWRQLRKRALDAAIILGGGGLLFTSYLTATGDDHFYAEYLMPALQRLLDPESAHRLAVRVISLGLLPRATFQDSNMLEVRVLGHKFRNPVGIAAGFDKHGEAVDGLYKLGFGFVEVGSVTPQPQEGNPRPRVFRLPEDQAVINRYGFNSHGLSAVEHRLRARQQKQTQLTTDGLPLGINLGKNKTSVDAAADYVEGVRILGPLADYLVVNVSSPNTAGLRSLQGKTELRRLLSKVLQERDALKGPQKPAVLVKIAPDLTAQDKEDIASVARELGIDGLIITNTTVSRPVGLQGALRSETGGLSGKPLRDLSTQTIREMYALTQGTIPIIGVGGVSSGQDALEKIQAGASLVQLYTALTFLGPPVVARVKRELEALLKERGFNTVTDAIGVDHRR
# [3] = Inhibitory activity (proliferation) against human peripheral blood mononuclear cells stimulated with Phytohemagglutininin-L (value range: 0.175-0.327); format: functional
# [4] = Inhibitory activity (proliferation) against human peripheral blood mononuclear cells stimulated with Phytohemagglutininin-L; format: functional
# [5] = target: Dihydroorotate dehydrogenase (quinone), mitochondrial (Homo sapiens, UniProt Q02127); assay: Inhibition of N-terminally truncated recombinant human dihydroorotate dehydrogenase using in vitro enzyme assay
# Chain of Dihydroorotate dehydrogenase (quinone), mitochondrial (Homo sapiens, UniProt Q02127) (Q02127 whole entry, the tested form may be a part): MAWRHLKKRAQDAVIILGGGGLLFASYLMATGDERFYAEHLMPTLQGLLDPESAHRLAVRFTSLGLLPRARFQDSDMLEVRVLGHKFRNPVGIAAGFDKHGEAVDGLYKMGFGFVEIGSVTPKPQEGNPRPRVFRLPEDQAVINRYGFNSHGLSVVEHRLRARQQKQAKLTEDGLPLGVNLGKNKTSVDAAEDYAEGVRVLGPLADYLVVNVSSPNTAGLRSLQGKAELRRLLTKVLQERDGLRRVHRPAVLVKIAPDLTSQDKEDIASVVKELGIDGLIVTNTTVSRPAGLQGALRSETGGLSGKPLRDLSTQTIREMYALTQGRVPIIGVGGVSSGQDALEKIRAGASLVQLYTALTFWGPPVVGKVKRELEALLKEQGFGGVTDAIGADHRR
# Chain of Dihydroorotate dehydrogenase (quinone), mitochondrial (Rattus norvegicus, UniProt Q63707) (Q63707 whole entry): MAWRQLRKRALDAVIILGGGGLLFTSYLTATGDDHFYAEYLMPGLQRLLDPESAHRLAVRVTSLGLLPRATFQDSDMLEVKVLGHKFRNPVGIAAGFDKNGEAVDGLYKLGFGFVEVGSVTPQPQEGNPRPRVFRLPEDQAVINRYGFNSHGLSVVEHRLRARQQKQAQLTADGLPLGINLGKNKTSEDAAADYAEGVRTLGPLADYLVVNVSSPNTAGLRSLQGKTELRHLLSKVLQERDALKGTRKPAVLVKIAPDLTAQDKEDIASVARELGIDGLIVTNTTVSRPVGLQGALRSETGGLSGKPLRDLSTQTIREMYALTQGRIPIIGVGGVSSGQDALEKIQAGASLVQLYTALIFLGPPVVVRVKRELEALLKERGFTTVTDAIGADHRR
Compound,pIC50 [5],also measured
O=C(O)C1=C(C(=O)Nc2c(F)c(F)c(-c3cccc(OC(F)(F)F)c3)c(F)c2F)CCC1,–,pIC50 [1]: 7.11; pIC50 [2]: 6.37; pIC50 [3]: 6.49
O=C(O)C1=C(C(=O)Nc2c(F)cc(-c3cccc(OC(F)(F)F)c3)cc2F)CCC1,–,pIC50 [1]: 6.30; pIC50 [2]: 5.70; pIC50 [4]: 4.82
O=C(O)C1=C(C(=O)Nc2ccc(OCc3c(F)cccc3Cl)c(Cl)c2)CCC1,7.96,–
O=C(O)C1=C(C(=O)Nc2ccc(OCc3c(F)cccc3Cl)c(Cl)c2)COC1,7.39,pIC50 [1]: 5.92; pIC50 [2]: 5.74; pIC50 [4]: 6.00
COc1cccc(-c2ccc(NC(=O)C3=C(C(=O)O)CSC3)c(F)c2)c1,6.88,–
O=C(O)C1=C(C(=O)Nc2c(F)cc(-c3cccc(OC(F)(F)F)c3)cc2F)CSC1,7.82,–
COc1cccc(-c2ccc(NC(=O)C3=C(C(=O)O)C(O)CC3)c(F)c2)c1 (configuration not stated),6.17,–
O=C(O)C1=C(C(=O)Nc2c(F)c(F)c(-c3cccc(OC(F)(F)F)c3)c(F)c2F)COC1,7.24,–
O=C(O)C1=C(C(=O)Nc2c(F)c(F)c(-c3cccc(OC(F)(F)F)c3)c(F)c2F)CSC1,8.40,–
O=C(O)C1=C(C(=O)Nc2c(F)cc(-c3cccc(OC(F)(F)F)c3)cc2F)COC1,6.69,–
O=C(O)C1=C(C(=O)Nc2cc(Br)c(OCc3ccccc3)c(Br)c2)CSC1,6.76,–
O=C(O)C1=C(C(=O)Nc2ccc(-c3ccccc3)cc2)CS(=O)(=O)C1,5.42,–
COc1cccc(-c2ccc(NC(=O)C3=C(C(=O)O)CCC3O)c(F)c2)c1 (configuration not stated),5.84,–
COc1cccc(-c2ccc(NC(=O)C3=C(C(=O)O)COC3)c(F)c2)c1,6.44,–
O=C(O)C1=C(C(=O)Nc2cc(Br)c(OCc3ccccc3)c(Br)c2)CCC1,6.90,–
O=C(O)C1=C(C(=O)Nc2ccc(-c3ccccc3)cc2)CCC1,–,pIC50 [1]: 5.82
O=C(O)C1=C(C(=O)Nc2ccc(OCc3ccccc3)cc2)CCC1,5.70,–
O=C(O)C1=C(C(=O)Nc2ccc(-c3ccccc3)cc2)CSC1,6.18,–
C/C(O)=C(\C#N)C(=O)Nc1ccc(C(F)(F)F)cc1 [TERIFLUNOMIDE],–,pIC50 [4]: 3.97
COc1cccc(-c2ccc(NC(=O)C3=C(C(=O)O)CCC3)c(F)c2)c1 [VIDOFLUDIMUS],–,pIC50 [4]: 4.89
